From patent publication US20170349593A1, “BTK INHIBITORS” (MERCK SHARP & DOHME CORP., priority 2014, published 2017)

Tests used:
[1] = target: T1, BTK enzyme (recombinant full-length BTK, hBTK) (Homo sapiens, UniProt Q06187); assay: Btk enzyme activity assay (LANCE TR-FRET); type: biochemical; settings: 50 pM hBTK, 25 μM ATP, 60 minute compound and enzyme incubation, concentration range 1 μM to 0.017 nM, read-out: BTK binding IC50
T1 construct: recombinant protein from baculovirus-transfected S 19 cells: full-length BTK, 6 HIS-tag cleaved; 6 HIS-tag (cleaved yes); made in house
T1 sequence (Q06187 whole entry): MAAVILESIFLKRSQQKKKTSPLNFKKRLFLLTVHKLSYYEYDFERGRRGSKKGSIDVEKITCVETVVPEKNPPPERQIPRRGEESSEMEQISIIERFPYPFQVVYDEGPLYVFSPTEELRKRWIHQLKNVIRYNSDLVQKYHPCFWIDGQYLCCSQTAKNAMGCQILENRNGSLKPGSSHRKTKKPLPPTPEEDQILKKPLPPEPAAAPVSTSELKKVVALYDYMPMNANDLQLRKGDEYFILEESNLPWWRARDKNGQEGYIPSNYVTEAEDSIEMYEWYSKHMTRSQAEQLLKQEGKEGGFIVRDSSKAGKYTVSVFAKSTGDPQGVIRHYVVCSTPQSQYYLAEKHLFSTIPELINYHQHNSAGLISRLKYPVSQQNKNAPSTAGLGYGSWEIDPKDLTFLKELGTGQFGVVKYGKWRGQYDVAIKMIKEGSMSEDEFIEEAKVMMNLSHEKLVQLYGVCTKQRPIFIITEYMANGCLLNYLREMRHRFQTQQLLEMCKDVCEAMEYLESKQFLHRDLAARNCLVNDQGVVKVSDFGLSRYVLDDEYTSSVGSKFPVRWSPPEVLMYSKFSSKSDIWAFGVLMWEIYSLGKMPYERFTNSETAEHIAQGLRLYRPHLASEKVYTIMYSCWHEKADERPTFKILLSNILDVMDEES

[2] = test system: adenosine uptake into HeLa cells; assay: [3H]Adenosine uptake assay; type: cell-based; settings: Homo sapiens; accumulation of [3H]adenosine into HeLa cells; concentration range 10 μM to 0.032 nM; read-out: ADU inhibition IC50
Outline: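 HeLa cells (25 000/well), plated overnight, were preincubated 30 minutes at ambient temperature with compound in HBSS + 5% FBS. Ten-point titrations ran from 10 μM to 0.032 nM final. [3H]adenosine was added from a 500 nM solution for 60 minutes, and uptake was measured by scintillation proximity counting; IC50 came from a 4-parameter fit.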

Row | SMILES | IC50 [1] [µM] | IC50 [2] [µM]
1 | COc1cc(C(=O)Nc2cc(C(F)(F)F)ccn2)ccc1-c1nc([C@H]2CN(C(=O)C3CC3)[C@@H](C)CO2)n2c(Cl)cnc(N)c12 [Example 47, 4-{8-amino-5-chloro-3-[(2R,5S)-4-(cyclopropylcarbonyl)-5-methylmorpholin-2-yl]imidazo[1,5-a]pyrazin-1-yl}-3-methoxy-N-[4-(trifluoromethyl)pyridin-2-yl]benzamide] | 0.00559 | 6.09
2 | CCOc1cc(C(=O)Nc2cc(C(F)(F)F)ccn2)ccc1-c1nc([C@@H]2CC[C@H](C(F)(F)F)N(C(=O)C3CC3)C2)n2ccnc(N)c12 [Example 1, 4-{8-amino-3-[(3R,6R)-1-(cyclopropylcarbonyl)-6-(trifluoromethyl)piperidin-3-yl]imidazo[1,5-a]pyrazin-1-yl}-3-ethoxy-N-[4-(trifluoromethyl)pyridin-2-yl]benzamide] | 0.347 | 0.918
3 | Nc1nccn2c([C@H]3CN(C4COC4)[C@H](CO)CO3)nc(-c3ccc(C(=O)Nc4cc(C(F)(F)F)ccn4)cc3F)c12 [Example 66, 4-{8-amino-3-[(2R,5R)-5-(hydroxymethyl)-4-oxetan-3-ylmorpholin-2-yl]imidazo[1,5-a]pyrazin-1-yl}-3-fluoro-N-[4-(trifluoromethyl)pyridin-2-yl]benzamide] | 0.00123 | 0.0246
4 | C[C@@H]1CO[C@@H](c2nc(-c3ccc(C(=O)Nc4cc(C(F)(F)F)ccn4)cc3F)c3c(N)nccn23)CN1Cc1cnn(C)c1 [Example 72, 4-(8-amino-3-{(2R,5R)-5-methyl-4-[(1-methyl-1H-pyrazol-4-yl)methyl]morpholin-2-yl}imidazo[1,5-a]pyrazin-1-yl)-3-fluoro-N-[4-(trifluoromethyl)pyridin-2-yl]benzamide] | 0.00145 | 0.138
5 | COc1cc(C(=O)Nc2cc(C(F)(F)F)ccn2)ccc1-c1nc([C@H]2CN(C=O)[C@@H](C)CO2)n2ccnc(N)c12 [Example 36, 4-{8-amino-3-[(2R,5S)-4-formyl-5-methylmorpholin-2-yl]imidazo[1,5-a]pyrazin-1-yl}-3-methoxy-N-[4-(trifluoromethyl)pyridin-2-yl]benzamide] | 0.00931 | 1.68
6 | COCC(=O)N1C[C@H](c2nc(-c3ccc(C(=O)Nc4cc(C(C)(F)F)ccn4)cc3)c3c(N)nccn23)CC[C@@H]1C [Example 97, 4-{8-amino-3-[(3R,6S)-1-(methoxyacetyl)-6-methylpiperidin-3-yl]imidazo[1,5-a]pyrazin-1-yl}-N-[4-(1,1-difluoroethyl)pyridin-2-yl]benzamide] | 0.000327 | 0.129
7 | C=Cc1cnc(N)c2c(-c3ccc(C(=O)Nc4cc(C(F)(F)F)ccn4)cc3OC)nc([C@H]3CN(C(=O)C4CC4)[C@@H](C)CO3)n12 [Example 10, 4-{8-amino-3-[(2R,5S)-4-(cyclopropylcarbonyl)-5-methylmorpholin-2-yl]-5-ethenylimidazo[1,5-a]pyrazin-1-yl}-3-methoxy-N-[4-(trifluoromethyl)pyridin-2-yl]benzamide] | 0.000528 | 1.2
8 | C[C@H]1CO[C@@H](c2nc(-c3ccc(C(=O)Nc4ccccn4)cc3)c3c(N)nccn23)CN1C(=O)C1CC1 [Example 62, 4-{8-amino-3-[(2R,5S)-4-(cyclopropylcarbonyl)-5-methylmorpholin-2-yl]imidazo[1,5-a]pyrazin-1-yl}-N-pyridin-2-ylbenzamide] | 0.0108 | 0.256
9 | CCOc1cc(C(=O)Nc2cc(C(F)(F)F)ccn2)ccc1-c1nc([C@H]2CN(C(=O)[C@H](C)OC)[C@@H](C)CO2)n2c(Cl)cnc(N)c12 [Example 21, 4-(8-amino-5-chloro-3-{(2R,5S)-4-[(2S)-2-methoxypropanoyl]-5-methylmorpholin-2-yl}imidazo[1,5-a]pyrazin-1-yl)-3-ethoxy-N-[4-(trifluoromethyl)pyridin-2-yl]benzamide] | 0.00143 | 7.27
10 | C[C@H]1CO[C@@H](c2nc(-c3ccc(C(=O)Nc4cc(C(F)(F)F)ccn4)cc3)c3c(N)nccn23)CN1C(=O)C1(C)CC1 [Example 81, 4-(8-amino-3-{(2R,5S)-5-methyl-4-[(1-methylcyclopropyl)carbonyl]morpholin-2-yl}imidazo[1,5-a]pyrazin-1-yl)-N-[4-(trifluoromethyl)pyridin-2-yl]benzamide] | 0.00051 | 0.107
11 | C[C@H]1CO[C@@H](c2nc(-c3ccc(C(=O)Nc4cc(C5CC5)ccn4)cc3F)c3c(N)nccn23)CN1C1CCOCC1 [Example 61, 4-{8-amino-3-[(2R,5S)-5-methyl-4-(tetrahydro-2H-pyran-4-yl)morpholin-2-yl]imidazo[1,5-a]pyrazin-1-yl}-N-(4-cyclopropylpyridin-2-yl)-3-fluorobenzamide] | 0.000814 | 0.386
12 | C[C@H]1CO[C@@H](c2nc(-c3ccc(C(=O)Nc4cc(C(F)(F)F)ccn4)cc3F)c3c(N)nccn23)CN1C(=O)C1(C)COC1 [Example 77, 4-(8-amino-3-{(2R,5S)-5-methyl-4-[(3-methyloxetan-3-yl)carbonyl]morpholin-2-yl}imidazo[1,5-a]pyrazin-1-yl)-3-fluoro-N-[4-(trifluoromethyl)pyridin-2-yl]benzamide] | 0.00044 | 0.239
13 | CC(=O)N1C[C@H](c2nc(-c3ccc(C(=O)Nc4cc(C(F)(F)F)ccn4)cc3F)c3c(N)nccn23)OC[C@H]1C [Example 71, 4-{3-[(2R,5R)-4-acetyl-5-methylmorpholin-2-yl]-8-aminoimidazo[1,5-a]pyrazin-1-yl}-3-fluoro-N-[4-(trifluoromethyl)pyridin-2-yl]benzamide] | 0.00663 | 0.11
14 | COc1cc(C(=O)Nc2cc(C(F)(F)F)ccn2)ccc1-c1nc([C@H]2CN(C3CN(Cc4ccccc4F)C3)[C@@H](C)CO2)n2ccnc(N)c12 [Example 32, 4-(8-amino-3-{(2R,5S)-4-[1-(2-fluorobenzyl)azetidin-3-yl]-5-methylmorpholin-2-yl}imidazo[1,5-a]pyrazin-1-yl)-3-methoxy-N-[4-(trifluoromethyl)pyridin-2-yl]benzamide] | 0.00641 | 1.07
15 | COCC(=O)N1C[C@H](c2nc(-c3ccc(C(=O)Nc4cc(C(F)(F)F)ccn4)cc3)c3c(N)nccn23)OC[C@@H]1C [Example 78, 4-{8-amino-3-[(2R,5S)-4-(methoxyacetyl)-5-methylmorpholin-2-yl]imidazo[1,5-a]pyrazin-1-yl}-N-[4-(trifluoromethyl)pyridin-2-yl]benzamide] | 0.000738 | 0.26
16 | COc1cc(C(=O)Nc2cc(C(F)(F)F)ccn2)ccc1-c1nc([C@H]2CN(C(=O)C(C)C)[C@@H](C)CO2)n2c(Cl)cnc(N)c12 [Example 15, 4-{8-amino-5-chloro-3-[(2R,5S)-5-methyl-4-(2-methylpropanoyl)morpholin-2-yl]imidazo[1,5-a]pyrazin-1-yl}-3-methoxy-N-[4-(trifluoromethyl)pyridin-2-yl]benzamide] | 0.00414 | 3.25
17 | COc1cc(C(=O)Nc2cc(C(F)(F)F)ccn2)ccc1-c1nc([C@H]2CN(C3CN(Cc4c(F)cccc4F)C3)[C@@H](C)CO2)n2ccnc(N)c12 [Example 30, 4-(8-amino-3-{(2R,5S)-4-[1-(2,6-difluorobenzyl)azetidin-3-yl]-5-methylmorpholin-2-yl}imidazo[1,5-a]pyrazin-1-yl)-3-methoxy-N-[4-(trifluoromethyl)pyridin-2-yl]benzamide] | 0.0107 | 1.03
18 | COc1cc(C(=O)Nc2cc(C(F)(F)F)ccn2)ccc1-c1nc([C@H]2CN(C(=O)C3CN(C(=O)C4CC4)C3)[C@@H](C)CO2)n2ccnc(N)c12 [Example 34, 4-{8-amino-3-[(2R,5S)-4-{[1-(cyclopropylcarbonyl)azetidin-3-yl]carbonyl}-5-methylmorpholin-2-yl]imidazo[1,5-a]pyrazin-1-yl}-3-methoxy-N-[4-(trifluoromethyl)pyridin-2-yl]benzamide] | 0.00265 | ≥ 10
19 | COc1cc(C(=O)Nc2cc(C(F)(F)F)ccn2)ccc1-c1nc([C@H]2CN(Cc3[nH]cnc3C)[C@@H](C)CO2)n2ccnc(N)c12 [Example 53, 4-(8-amino-3-{(2R,5S)-5-methyl-4-[(4-methyl-1H-imidazol-5-yl)methyl]morpholin-2-yl}imidazo[1,5-a]pyrazin-1-yl)-3-methoxy-N-[4-(trifluoromethyl)pyridin-2-yl]benzamide] | 0.0058 | 1.03
20 | Nc1nccn2c([C@H]3CN(C(=O)C4CC4)[C@H](CO)CO3)nc(-c3ccc(C(=O)Nc4cc(C(F)(F)F)ccn4)cc3F)c12 [Example 63, 4-{8-amino-3-[(2R,5R)-4-(cyclopropylcarbonyl)-5-(hydroxymethyl)morpholin-2-yl]imidazo[1,5-a]pyrazin-1-yl}-3-fluoro-N-[4-(trifluoromethyl)pyridin-2-yl]benzamide] | 0.00528 | 0.0485
21 | C[C@H](O)C(=O)N1C[C@H](c2nc(-c3ccc(C(=O)Nc4cc(C(F)(F)F)ccn4)cc3F)c3c(N)nccn23)OC[C@H]1C [Example 68, 4-(8-amino-3-{(2R,5R)-4-[(2S)-2-hydroxypropanoyl]-5-methylmorpholin-2-yl}imidazo[1,5-a]pyrazin-1-yl)-3-fluoro-N-[4-(trifluoromethyl)pyridin-2-yl]benzamide] | 0.00302 | 0.0766
22 | COCCC(=O)N1CC(N2C[C@H](c3nc(-c4ccc(C(=O)Nc5cc(C(F)(F)F)ccn5)cc4OC)c4c(N)nccn34)OC[C@@H]2C)C1 [Example 28, 4-(8-amino-3-{(2R,5S)-4-[1-(3-methoxypropanoyl)azetidin-3-yl]-5-methylmorpholin-2-yl}imidazo[1,5-a]pyrazin-1-yl)-3-methoxy-N-[4-(trifluoromethyl)pyridin-2-yl]benzamide] | 0.00761 | ≥ 10
